Source: US20150282486A1, “RICE SEED TREATMENT COMPOSITION” (SYNGENTA PARTICIPATIONS AG, priority 2014, published 2015)

Experiments:
rice seed variety CL 151 [1] = test: Greenhouse trial of zinc-treated rice seed in Zn deficient soil mix: total zinc uptake in dry above ground plant tissue; type: in vivo; conditions: dry above ground tissue harvested 29 DAP, plus insecticide/fungicide mixture
From the text: (§1) For the inventive composition, ZnEDTA (in the form of Dissolvine E-Zn-15 having 3% free zinc, Akzo Nobel, IL., USA) was applied as a 20% w/w aqueous solution at rates of 1.18 1.47 and 1.76 g ZnEDTA/kg seed. This was accomplished by using 8, 10 or 12 fl oz per cwt.
(§2) For the first comparative composition, ZnSO4 was applied as a 24.7% solution at a rate of 1.90 g ZnSO4/kg seed (in the form of ZINC PLUS having 10% free zinc, DeltAg, MS, USA). This was accomplished by using 10 fl oz per cwt.
(§3) For the second comparative composition, ZnO was applied as a 32.50% aqueous suspension at a rate of 2.00 g ZnO/kg seed (in the form of ZINCHE ST having 26% free zinc, Drexel Chemical Co, TN, USA). This was accomplished by using 8 fl oz per cwt.
(§4) This was done by preparing a mixture of each zinc-containing compound with the insecticide/fungicide mixture and adding water to make a total of 25 fl oz per ctw (thiamethoxam at 1.80 g/kg seed, fludioxonil at 0.015 g/kg seed, azoxystrobin at 0.07 g/kg seed, metalaxyl-M at 0.09 g/kg seed and sedaxane at 0.01 g/kg seed; commercial products available as e.g. CRUISER MAXX and VIBRANCE, both Syngenta Crop Protection, NC, USA). Also evaluated were untreated control and seeds having only the conventional insecticide and fungicide treatment.
(§5) For all test groups, one (1) kg batches of rice seed variety CL 151 (Clearfield Seed, Horizon Ag, TN, USA) were treated on a Hege seed treater (Wintersteiger AG, Austria) using a standard protocol. The seeds were allowed to dry.
Standard commercial greenhouse containers, 10 cm diameter by 9 cm deep, were filled with 350 cc of a rooting media mix consisting of 33% (v/v) Zn deficient soil collected in Arkansas, USA and then sterilized in an autoclave and 66% (v/v) commercial planting mix (NB peat, Fafard, MA, USA). Analysis of the potting mix confirmed that the zinc levels were low, at 1.97 ppm and pH levels were <7.
Prior to planting the soil was moistened with 200 ml tap water per pot. Eight seeds were sown per pot by placing them on soil surface then lightly covering with 0.5 cm of loose peat. […] Pots were transferred to greenhouse and maintained at 30/24° C. day/night temperature with 16 hours of supplemental high pressure sodium light. All pots were lightly watered manually every 2 to 3 days to prevent dehydration of the germination zone.
Ten days after planting (10 DAP) a drip irrigation emitter was installed on each pot. The irrigation system was set to deliver 100 ml of tap water each morning and again each evening. Germination rates were recorded and at 11 DAP rice seedlings were thinned to 5 plants per pot. By 17 DAP rice plants were in the V3 growth stage. At 18 DAP nitrogen fertilizer (urea) was added to the irrigation water at 200 ppm for the duration of trial. At 22 DAP rice plants were in the V4 growth stage with first tiller forming.
At 29 DAP rice plants were in the V5 growth stage with 3 tillers. The above ground plant tissue was harvested and placed in paper bags. Bags were placed in an oven set at 100° C. for 72 hours to dry. The dry tissue was removed from the bags and weighed. Samples of the dry tissue were analyzed for total zinc uptake (MicroMacro International, Inc. Labs, GA, USA).

rice seed variety CL 151 [2] = test: Greenhouse trial of zinc-treated rice seed in Zn deficient soil mix: germination rate; type: in vivo; conditions: plus insecticide/fungicide mixture, Zn deficient potting mix 1.97 ppm Zn
From the text: as §1, §2, §3, §4, §5
Standard commercial greenhouse containers, 10 cm diameter by 9 cm deep, were filled with 350 cc of a rooting media mix consisting of 33% (v/v) Zn deficient soil collected in Arkansas, USA and then sterilized in an autoclave and 66% (v/v) commercial planting mix (NB peat, Fafard, MA, USA). Analysis of the potting mix confirmed that the zinc levels were low, at 1.97 ppm and pH levels were <7. […]
Ten days after planting (10 DAP) a drip irrigation emitter was installed on each pot. […] Germination rates were recorded and at 11 DAP rice seedlings were thinned to 5 plants per pot. […]

rice seed = conditions: 1.4 g ZnEDTA/kg rice seed; cited from earlier work

For `O=C(O)CN(CCN(CC(=O)O)CC(=O)O)CC(=O)O.[Zn]` [ZnEDTA, zinc ethylenediaminetetraacetic acid], the “Zinc uptake (ppm)” value (rice seed variety CL 151 [1]; 1.18 g Zn complex/kg seed) was 275.47 ppm, the “Zinc uptake (ppm)” value (rice seed variety CL 151 [1]; 1.47 g Zn complex/kg seed) was 304.74 ppm and the “Zinc uptake (ppm)” value (rice seed variety CL 151 [1]; 1.76 g Zn complex/kg seed) was 316.00 ppm. For the same compound, the “Germination rate (%)” value (rice seed variety CL 151 [2]; 1.47 g Zn complex/kg seed) was 45% and the “Outcome of rice seed treatment” value (rice seed) was “not successful”.
In the case of `[O]=[Zn]` [ZnO, Zinc oxide, reference compound], the “Zinc uptake (ppm)” value (rice seed variety CL 151 [1]; 2.00 g Zn complex/kg seed) is reported as 253.65 ppm and the “Germination rate (%)” value (rice seed variety CL 151 [2]; 2.00 g Zn complex/kg seed) is reported as 42%.
In the case of `O=S(=O)([O-])[O-].[Zn+2]` [ZnSO4, Zinc sulfate, reference compound], the “Zinc uptake (ppm)” value (rice seed variety CL 151 [1]; 1.90 g Zn complex/kg seed) is reported as 237.50 ppm and the “Germination rate (%)” value (rice seed variety CL 151 [2]; 1.90 g Zn complex/kg seed) is reported as 43%.
